Data published in patent US11946041B2, “Modification of polypeptides” (BicycleRD Limited, priority 2017, dated 2024).

Experiments:
CCR4 [1] = target: T1, CCR4 (Homo sapiens, UniProt P51679); experiment: PathHunter eXpress CCR4 CHO-K1 β-Arrestin GPCR Assay, agonist format; assay type: cell-based
T1 construct: host or cells: CHO-K1
T1 sequence (P51679 1-360): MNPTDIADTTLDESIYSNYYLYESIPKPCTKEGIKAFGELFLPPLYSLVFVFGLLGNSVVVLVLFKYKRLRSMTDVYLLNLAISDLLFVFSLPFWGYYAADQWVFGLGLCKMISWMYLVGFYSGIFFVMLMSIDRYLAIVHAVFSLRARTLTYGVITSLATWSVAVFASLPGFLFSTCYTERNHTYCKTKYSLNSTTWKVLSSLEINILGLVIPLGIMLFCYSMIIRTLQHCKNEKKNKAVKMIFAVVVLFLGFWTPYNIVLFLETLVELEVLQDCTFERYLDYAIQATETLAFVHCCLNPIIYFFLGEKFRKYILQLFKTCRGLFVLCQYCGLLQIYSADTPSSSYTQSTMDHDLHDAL
Description: (§1) The aim of the present experiment was to analyze if if these peptides are functional using a Discoverx Assay, the Beta-Arrestin recruitment assay, to identify agonism or antagonism in the selected peptides.
(§2) Standard protocols used: • PathHunter® eXpress CCR4 CHO-K1 β-Arrestin GPCR Assay. 100 dp (1×96-well)
(§3) The experiment was carried using the manufacturer instructions.
The concentration was increased to test for response at high concentration.

CCR4 [2] = target: T1, CCR4; experiment: PathHunter eXpress CCR4 CHO-K1 β-Arrestin GPCR Assay, antagonist format with CCL22; assay type: cell-based; conditions: for IC80: 10 nM CCL22
Description: as §1, §2, §3
We therefore used the assay in an antagonist format, using 10 nM CCL22.
We repeated this experiment lowering the concentration of CCL22 from 10 nM to 1 nM to show a full inhibition curve.

ACRAVHSLRCLTTCA [24-17-00-N001, bicyclic peptide ligand, TATA scaffold, from CCR4 cell-based selection]
Raw Data (CCR4 [1]; 0.006 nM): 27836
Raw Data (CCR4 [1]; 0.02 nM): 26107
Raw Data (CCR4 [1]; 0.06 nM): 29865
Raw Data (CCR4 [1]; 0.17 nM): 29746
Raw Data (CCR4 [1]; 0.51 nM): 27025
Raw Data (CCR4 [1]; 1.5 nM): 27917
Raw Data (CCR4 [1]; 4.6 nM): 25017
Raw Data (CCR4 [1]; 13.9 nM): 23972
Raw Data (CCR4 [1]; 41.7 nM): 23928
Raw Data (CCR4 [1]; 125 nM): 23999
Raw Data (CCR4 [1]; 375 nM): 22611
Raw Data (CCR4 [1]; high concentration, 0.001 uM): 11608
Raw Data (CCR4 [1]; high concentration, 0.003 uM): 11809
Raw Data (CCR4 [1]; high concentration, 0.008 uM): 13248
Raw Data (CCR4 [1]; high concentration, 0.023 uM): 13984
Raw Data (CCR4 [1]; high concentration, 0.1 uM): 14856
Raw Data (CCR4 [1]; high concentration, 0.2 uM): 15518
Raw Data (CCR4 [1]; high concentration, 0.6 uM): 15965
Raw Data (CCR4 [1]; high concentration, 1.9 uM): 17244
Raw Data (CCR4 [1]; high concentration, 5.6 uM): 17261
Raw Data (CCR4 [1]; high concentration, 16.7 uM): 16709
Raw Data (CCR4 [1]; high concentration, 50 uM): 16749
Raw Data (CCR4 [2]; 1 nM CCL22, 0.001 uM): 272073
Raw Data (CCR4 [2]; 1 nM CCL22, 0.003 uM): 292052
Raw Data (CCR4 [2]; 1 nM CCL22, 0.008 uM): 301675
Raw Data (CCR4 [2]; 1 nM CCL22, 0.023 uM): 285103
Raw Data (CCR4 [2]; 1 nM CCL22, 0.1 uM): 296795
Raw Data (CCR4 [2]; 1 nM CCL22, 0.2 uM): 246983
Raw Data (CCR4 [2]; 1 nM CCL22, 0.6 uM): 252179
Raw Data (CCR4 [2]; 1 nM CCL22, 1.9 uM): 240952
Raw Data (CCR4 [2]; 1 nM CCL22, 5.6 uM): 197381
Raw Data (CCR4 [2]; 1 nM CCL22, 16.7 uM): 125610
Raw Data (CCR4 [2]; 1 nM CCL22, 50 uM): 114156
Raw Data (CCR4 [2]; 10 nM CCL22, 0.001 uM): 164018
Raw Data (CCR4 [2]; 10 nM CCL22, 0.003 uM): 174559
Raw Data (CCR4 [2]; 10 nM CCL22, 0.008 uM): 143078
Raw Data (CCR4 [2]; 10 nM CCL22, 0.023 uM): 164921
Raw Data (CCR4 [2]; 10 nM CCL22, 0.1 uM): 153182
Raw Data (CCR4 [2]; 10 nM CCL22, 0.2 uM): 151630
Raw Data (CCR4 [2]; 10 nM CCL22, 0.6 uM): 146982
Raw Data (CCR4 [2]; 10 nM CCL22, 1.9 uM): 132070
Raw Data (CCR4 [2]; 10 nM CCL22, 5.6 uM): 148721
Raw Data (CCR4 [2]; 10 nM CCL22, 16.7 uM): 140316
Raw Data (CCR4 [2]; 10 nM CCL22, 50 uM): 153988

ACLNGCRNTNSQCA [24-11-00-N001, bicyclic peptide ligand, TATA scaffold, from CCR4 cell-based selection]
Raw Data (CCR4 [1]; 0.006 nM): 24609
Raw Data (CCR4 [1]; 0.02 nM): 24123
Raw Data (CCR4 [1]; 0.06 nM): 27885
Raw Data (CCR4 [1]; 0.17 nM): 25757
Raw Data (CCR4 [1]; 0.51 nM): 27976
Raw Data (CCR4 [1]; 1.5 nM): 27602
Raw Data (CCR4 [1]; 4.6 nM): 26096
Raw Data (CCR4 [1]; 13.9 nM): 22941
Raw Data (CCR4 [1]; 41.7 nM): 22581
Raw Data (CCR4 [1]; 125 nM): 22195
Raw Data (CCR4 [1]; 375 nM): 19528
Raw Data (CCR4 [1]; high concentration, 0.001 uM): 9494
Raw Data (CCR4 [1]; high concentration, 0.003 uM): 10549
Raw Data (CCR4 [1]; high concentration, 0.008 uM): 10183
Raw Data (CCR4 [1]; high concentration, 0.023 uM): 11338
Raw Data (CCR4 [1]; high concentration, 0.1 uM): 11394
Raw Data (CCR4 [1]; high concentration, 0.2 uM): 12202
Raw Data (CCR4 [1]; high concentration, 0.6 uM): 11009
Raw Data (CCR4 [1]; high concentration, 1.9 uM): 11006
Raw Data (CCR4 [1]; high concentration, 5.6 uM): 10444
Raw Data (CCR4 [1]; high concentration, 16.7 uM): 10968
Raw Data (CCR4 [1]; high concentration, 50 uM): 9993
Raw Data (CCR4 [2]; 1 nM CCL22, 0.001 uM): 139740
Raw Data (CCR4 [2]; 1 nM CCL22, 0.003 uM): 146107
Raw Data (CCR4 [2]; 1 nM CCL22, 0.008 uM): 158208
Raw Data (CCR4 [2]; 1 nM CCL22, 0.023 uM): 155622
Raw Data (CCR4 [2]; 1 nM CCL22, 0.1 uM): 132431
Raw Data (CCR4 [2]; 1 nM CCL22, 0.2 uM): 136037
Raw Data (CCR4 [2]; 1 nM CCL22, 0.6 uM): 141369
Raw Data (CCR4 [2]; 1 nM CCL22, 1.9 uM): 129872
Raw Data (CCR4 [2]; 1 nM CCL22, 5.6 uM): 110179
Raw Data (CCR4 [2]; 1 nM CCL22, 16.7 uM): 106271
Raw Data (CCR4 [2]; 1 nM CCL22, 50 uM): 85131
IC80 (CCR4 [2]): 9.29 µM
Raw Data (CCR4 [2]; 10 nM CCL22, 0.001 uM): 164482
Raw Data (CCR4 [2]; 10 nM CCL22, 0.003 uM): 157449
Raw Data (CCR4 [2]; 10 nM CCL22, 0.008 uM): 146640
Raw Data (CCR4 [2]; 10 nM CCL22, 0.023 uM): 154833
Raw Data (CCR4 [2]; 10 nM CCL22, 0.1 uM): 154951
Raw Data (CCR4 [2]; 10 nM CCL22, 0.2 uM): 151383
Raw Data (CCR4 [2]; 10 nM CCL22, 0.6 uM): 163219
Raw Data (CCR4 [2]; 10 nM CCL22, 1.9 uM): 153353
Raw Data (CCR4 [2]; 10 nM CCL22, 5.6 uM): 145586
Raw Data (CCR4 [2]; 10 nM CCL22, 16.7 uM): 127180
Raw Data (CCR4 [2]; 10 nM CCL22, 50 uM): 119853

ACQLTCLPPPRQPGCA [24-15-00-N001, bicyclic peptide ligand, TATA scaffold, from CCR4 cell-based selection]
Raw Data (CCR4 [1]; 0.006 nM): 28566
Raw Data (CCR4 [1]; 0.02 nM): 27298
Raw Data (CCR4 [1]; 0.06 nM): 26888
Raw Data (CCR4 [1]; 0.17 nM): 28025
Raw Data (CCR4 [1]; 0.51 nM): 31189
Raw Data (CCR4 [1]; 1.5 nM): 30670
Raw Data (CCR4 [1]; 4.6 nM): 27635
Raw Data (CCR4 [1]; 13.9 nM): 25509
Raw Data (CCR4 [1]; 41.7 nM): 24463
Raw Data (CCR4 [1]; 125 nM): 22916
Raw Data (CCR4 [1]; 375 nM): 24222
Raw Data (CCR4 [1]; high concentration, 0.001 uM): 10900
Raw Data (CCR4 [1]; high concentration, 0.003 uM): 11501
Raw Data (CCR4 [1]; high concentration, 0.008 uM): 12079
Raw Data (CCR4 [1]; high concentration, 0.023 uM): 12121
Raw Data (CCR4 [1]; high concentration, 0.1 uM): 13265
Raw Data (CCR4 [1]; high concentration, 0.2 uM): 13225
Raw Data (CCR4 [1]; high concentration, 0.6 uM): 13586
Raw Data (CCR4 [1]; high concentration, 1.9 uM): 13457
Raw Data (CCR4 [1]; high concentration, 5.6 uM): 13067
Raw Data (CCR4 [1]; high concentration, 16.7 uM): 13469
Raw Data (CCR4 [1]; high concentration, 50 uM): 10917
range of antagonism activity (CCR4 [2]): micromolar range
antagonist for CCR4 (CCR4 [2]; 1 nM CCL22): antagonist
Raw Data (CCR4 [2]; 1 nM CCL22, 0.001 uM): 244512
Raw Data (CCR4 [2]; 1 nM CCL22, 0.003 uM): 269008
Raw Data (CCR4 [2]; 1 nM CCL22, 0.008 uM): 278839
Raw Data (CCR4 [2]; 1 nM CCL22, 0.023 uM): 265078
Raw Data (CCR4 [2]; 1 nM CCL22, 0.1 uM): 267763
Raw Data (CCR4 [2]; 1 nM CCL22, 0.2 uM): 233858
Raw Data (CCR4 [2]; 1 nM CCL22, 0.6 uM): 230668
Raw Data (CCR4 [2]; 1 nM CCL22, 1.9 uM): 210573
Raw Data (CCR4 [2]; 1 nM CCL22, 5.6 uM): 168855
Raw Data (CCR4 [2]; 1 nM CCL22, 16.7 uM): 47343
Raw Data (CCR4 [2]; 1 nM CCL22, 50 uM): 37690
IC80 (CCR4 [2]): 14 µM
Raw Data (CCR4 [2]; 10 nM CCL22, 0.001 uM): 166495
Raw Data (CCR4 [2]; 10 nM CCL22, 0.003 uM): 152456
Raw Data (CCR4 [2]; 10 nM CCL22, 0.008 uM): 159966
Raw Data (CCR4 [2]; 10 nM CCL22, 0.023 uM): 163145
Raw Data (CCR4 [2]; 10 nM CCL22, 0.1 uM): 162443
Raw Data (CCR4 [2]; 10 nM CCL22, 0.2 uM): 160790
Raw Data (CCR4 [2]; 10 nM CCL22, 0.6 uM): 164042
Raw Data (CCR4 [2]; 10 nM CCL22, 1.9 uM): 149995
Raw Data (CCR4 [2]; 10 nM CCL22, 5.6 uM): 119202
Raw Data (CCR4 [2]; 10 nM CCL22, 16.7 uM): 94688
Raw Data (CCR4 [2]; 10 nM CCL22, 50 uM): 55746
